Assay results taken from patent US20220274947A1, “NOVEL HETEROARYL-TRIAZOLE COMPOUNDS AS PESTICIDES” (Bayer Aktiengesellschaft, priority 2019, published 2022).

Legend:
Format in all cases: in vivo
[1] = test system: Culex quinquefasciatus strain P00; assay: Culex quinquefasciatus test (CULXFA surface treatment & contact assay); conditions: exposure 30 minutes, 24 hours after contact, read-out: efficacy (mortality); for mortality at 20 mg/m2: surface concentration 20 mg/m^2, glazed tile; for mortality at 4 mg/m2: surface concentration 4 mg/m^2, glazed tile
Outline: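 Test compound in acetone (2 mg/ml) with 2000 ppm RME pipetted onto glazed tile; after acetone evaporation, adult strain P00 mosquitoes exposed to dried surface for 30 min. Mortality (%) scored 24 h after contact; 100% = all dead, 0% = none dead.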

Myzus persicae [2] = assay: Myzus persicae oral test; conditions: 120 h, read-out: activity (mortality)
Outline: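 Percent mortality was recorded at day 5, where 0% means no aphids killed. Compound prepared from an acetone concentrate diluted in water and combined with IPL41 medium containing sugar was offered to mixed-stage green peach aphids, which sucked it through a parafilm seal.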

[3] = test system: Aedes aegypti strain MONHEIM; assay: Aedes aegypti test (AEDSAE surface treatment & contact assay); conditions: exposure 30 minutes, 24 hours after contact, read-out: efficacy (mortality); for mortality at 4 mg/m2: surface concentration 4 mg/m^2, glazed tile; for mortality at 20 mg/m2: surface concentration 20 mg/m^2, glazed tile
Outline: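 Compound dissolved in acetone (2 mg/ml) with 2000 ppm rapeseed oil methyl ester, pipetted onto glazed tile and dried. Adult mosquitoes exposed on the surface for 30 min; percent mortality scored 24 h after contact.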

Rhipicephalus sanguineus = Rhipicephalus sanguineus in-vitro contact test, adult brown dog ticks (RHIPSA Cont); conditions: 48 h, after 48 hours, read-out: activity (efficacy: 100% means all ticks are dead or moribund); for pest or weed control at 1 µg/cm2, 100 g/ha: application rate 1 μg/cm^2 (=100 g/ha); for pest or weed control at 5 µg/cm2, 500 g/ha: application rate 5 μg/cm^2 (=500 g/ha)
Outline: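 Compound in acetone (9 mg/mL stock, diluted to test concentration) is coated onto inner walls of glass tubes by rotation for 2 h at 30 rpm. Efficacy is read after 48 h: ticks are tapped down and held on a 45-50° C plate for at most 5 min, and immotile or uncoordinated ones that fail to climb away count as dead or moribund.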

[4] = test system: Anopheles funestus strain FUMOZ-R; assay: Anopheles funestus test (ANPHFU surface treatment & contact assay); conditions: exposure 30 minutes, 24 hours after contact, read-out: efficacy (mortality); for mortality at 4 mg/m2: surface concentration 4 mg/m^2, glazed tile; for mortality at 20 mg/m2: surface concentration 20 mg/m^2, glazed tile
Outline: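 Adult FUMOZ-R mosquitoes were exposed 30 min to glazed tiles treated with compound in acetone plus 2000 ppm rapeseed oil methyl ester, after solvent evaporation. Percent mortality was scored 24 h after contact.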

Rhipicephalus microplus = assay: Rhipicephalus (Boophilus) microplus dip test (BOOPMI Dip); conditions: 168 h, application rate 100 ppm, engorged adult female ticks, after 7 days, read-out: activity (efficacy: 100% means all eggs are infertile)
Experimental: Rhipicephalus (Boophilus) Microplus—Dip Test (BOOPMI Dip)
Test Animal: cattle ticks (Rhipicephalus microplus) strain parkhurst, SP-resistant Solvent: dimethyl sulfoxide
To produce a suitable preparation of active compound, 10 mg of active compound are dissolved in 0.5 mL solvent, and the concentrate is diluted with water to the desired concentration.
This compound solution is pipetted into tubes. 8-10 engorged, adult, female cattle ticks (Rhipicephalus microplus) are placed in perforated tubes. These tubes are immersed in the aqueous compound solution until the ticks are completely moistened. After the liquid has drained off, the ticks are transferred to a filter paper in a plastic tray and stored in a climate chamber.
After 7 days egg deposition of fertile eggs is monitored. Eggs where fertility is not visible are stored in a climate chamber till hatching after about 42 days. An efficacy of 100% means all eggs are infertile; 0% means all eggs are fertile.

Ctenocephalides felis = Ctenocephalides felis oral test (CTECFE Oral); conditions: 48 h, read-out: activity (mortality)
Outline: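 Percent mortality was recorded 2 days after roughly 20 adult Ctenocephalides felis fed on treated cattle blood. The blood was warmed to 37 °C beneath a parafilm membrane, with the fleas kept at room temperature. Compound was dissolved in DMSO and diluted into the blood to test concentration.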

Myzus persicae [5] = assay: Myzus persicae spray test; conditions: in Brassica rapa, foliar, 120 h; for mortality at 500 g/ha: read-out: activity (mortality), application rate 500 g/ha, spray, Chinese cabbage leaf disks, after 5 days; for mortality at 100 g/ha: read-out: activity (mortality), application rate 100 g/ha, spray, Chinese cabbage leaf disks, after 5 days
Outline: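 Aphid mortality in % was assessed 5 days after spraying; leaf disks of Brassica pekinensis carrying mixed-instar green peach aphids were treated. Spray preparation: active compound in acetone plus dimethylformamide, diluted with emulsifier-containing water (1000 ppm).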

| SMILES | mortality at 20 mg/m2 [1] [%] | mortality at 4 ppm (Myzus persicae [2]) [%] | mortality at 4 mg/m2 [3] [%] | mortality at 20 mg/m2 [3] [%] | pest or weed control at 1 µg/cm2, 100 g/ha (Rhipicephalus sanguineus) [%] | pest or weed control at 5 µg/cm2, 500 g/ha (Rhipicephalus sanguineus) [%] | mortality at 4 mg/m2 [4] [%] | mortality at 20 mg/m2 [4] [%] | pest or weed control at 100 ppm (Rhipicephalus microplus) [%] | mortality at 100 ppm (Ctenocephalides felis) [%] | mortality at 500 g/ha (Myzus persicae [5]) [%] | mortality at 100 g/ha (Myzus persicae [5]) [%] | mortality at 4 mg/m2 [1] [%] | mortality at 0.8 ppm (Myzus persicae [2]) [%] |
| --- | --- | --- | --- | --- | --- | --- | --- | --- | --- | --- | --- | --- | --- | --- |
| C[C@H](NC(=O)c1cc(Cl)nc(C(F)(F)F)c1)c1ncnn1-c1ccc(C#N)cn1 [II-5] | 80 to 100 | 100 | 80 to 100 | 80 to 100 | 100 | 100 | 80 to 100 | 80 to 100 | 100 | 90 | 90 |  |  |  |
| C[C@H](NC(=O)c1cc(C(F)(F)F)cc(C(F)(F)F)c1)c1ncnn1-c1ccc(C(=O)N(C)C2CC2)cn1 [II-38, 6-(5-{(1S)-1-[3,5-bis(trifluoromethyl)benzamido]ethyl}-1H-1,2,4-triazol-1-yl)-N-cyclopropyl-N-methylnicotinamide] | 80 to 100 | 100 | 80 to 100 | 80 to 100 | 100 | 100 |  | 80 to 100 | 80 |  | 100 | 100 |  |  |
| C[C@H](NC(=O)c1cc(Cl)cc(C(F)(F)F)c1)c1ncnn1-c1cc(-n2cncn2)ccn1 [II-43] |  |  | 80 to 100 | 80 to 100 | 100 | 100 |  | 80 to 100 | 100 |  |  |  | 80 to 100 |  |
| Cc1nc([C@H](C)NC(=O)c2cc(Cl)cc(Br)c2)n(-c2ccc(C#N)cn2)n1 [II-50] |  | 100 | 80 to 100 | 80 to 100 | 100 | 100 | 80 to 100 |  | 100 | 100 |  | 100 | 80 to 100 | 100 |
| Cc1nc([C@H](C)NC(=O)c2cncc(C(F)(F)F)c2)n(-c2ccc(C#N)cn2)n1 [II-63] | 80 to 100 | 100 | 80 to 100 | 80 to 100 | 100 | 100 |  |  | 100 | 100 |  | 100 |  |  |
